How the values were obtained:
[1] = tested on: cannabis clones of the gelato varietal; conditions: in vivo
[2] = tested on: cannabis clones of the gelato varietal; experiment: Aroma compound analysis of cannabis flower by GCxGC-FID/TOF-MS; format: in vivo; conditions: compared with control and G1
Protocol: The major volatile aroma compounds of the flowers from the Cannabis plants were extracted using methanol as a solvent. 200 mg of flower was placed into a scintillation vial followed by mechanical grinding with a plastic disposable spatula. 2 mL of methanol was added to the flower and agitated for 15 minutes, followed by transferring 4 μL of the solution using a filtered syringe to a 20 mL headspace vial and crimped using an electric crimper.
GC×GC analysis was performed using the INSIGHT™ reverse fill flush flow modulator (SepSolve Analytical). This was coupled for data generation to an Agilent 7890B GC and BenchTOF Select Time of flight mass spectrometer (Markes International). Time-of-Flight Mass spectrometry (TOF-MS) was used to identify compounds. Quantification of compounds was done using a flame ionization detector (HD). Sample introduction was done using a Centri Sample Concentration Platform (Markes International). […]
Data was collected, integrated, and analyzed using the ChromSpace software platform (Sepsolve Analytical). Compounds were quantified from GC×GC—FID data with calibration curves using a 40-compound terpene standard (LGC Standards). […]
Three different samples of the plants shown in FIG. 4 were measured to obtain an average.
Three different samples of the plants shown were measured to for each group.

| Structure (SMILES) | THC and total cannabinoid concentration / cannabinoid production, in words [1] | volatile aroma compound production / aroma content, in words [2] |
| --- | --- | --- |
| O=S(=O)([O-])[O-].[K+].[K+] [K2SO4, potassium sulfate] | negatively affects | negatively affects |
| COc1ccc2[nH]cc(CCNC(C)=O)c2c1 [melatonin] | increased cannabinoid production relative to the control group | – |
